From article PMC8123663, “Small-Molecule Inhibitors of the RNA M6A Demethylases FTO Potently Support the Survival of Dopamine Neurons” (International Journal of Molecular Sciences, 2021)
Where “and” joins values, the source holds several entries; their conditions need not be identical. Identical values can stand only once. Entries after “also recorded” stand apart in the source; their conditions may differ.

Columns and labels:
[1] = target: T1, FTO protein (Homo sapiens, UniProt Q9C0B1); experiment: FTO enzyme inhibition assay (demethylation of m6A RNA probe); type: biochemical; parameters: 6His (C); purchased ProteoGenics SAS (ProteoGenix), Schiltigheim, France; host or cells: HEK293 (transient transfection); details: for Inhibitory effect on FTO: up to the 100 µM concentration; for IC50: 10 nM FTO, 200 ng m6A RNA probe, 2 h at RT
T1 sequence (Q9C0B1 whole entry): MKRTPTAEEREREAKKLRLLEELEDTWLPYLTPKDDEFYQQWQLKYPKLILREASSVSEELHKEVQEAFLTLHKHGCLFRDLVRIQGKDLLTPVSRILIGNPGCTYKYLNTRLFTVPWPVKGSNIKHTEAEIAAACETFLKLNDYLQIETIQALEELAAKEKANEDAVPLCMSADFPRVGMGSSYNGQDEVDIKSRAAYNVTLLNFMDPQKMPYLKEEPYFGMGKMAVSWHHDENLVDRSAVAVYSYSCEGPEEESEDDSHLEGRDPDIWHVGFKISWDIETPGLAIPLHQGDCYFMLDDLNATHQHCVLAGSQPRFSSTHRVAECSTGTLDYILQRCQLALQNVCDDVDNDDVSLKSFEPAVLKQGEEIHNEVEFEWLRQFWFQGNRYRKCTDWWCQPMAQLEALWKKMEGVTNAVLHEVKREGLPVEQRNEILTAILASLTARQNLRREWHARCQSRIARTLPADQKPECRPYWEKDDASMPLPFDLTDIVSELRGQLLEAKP
Procedure: The enzymatic assay was modified from Huang et al. The experiments were conducted in reaction buffer (50 mM Tris-HCl, pH 7.5, 300 μM 2OG, 280 μM (NH4)2Fe(SO4)2, and 2 mM L-ascorbic acid). The reaction mixture contained 200 ng methylated N^6-adenine RNA probe (SEQ ID NO: 1) (5′-CUUGUCAm6[…]-3′, Dharmacon, Lafayette, CO, USA) and 10 nM FTO protein and different concentrations of ligands (1 nM to 100 µM). Reactions were incubated on 96-well plate for 2 h at RT. After that, the amount of m^6A that was measured using EpiQuik m^6A RNA methylation Quantification Colorimetric Kit (Epigentek, Farmingdale, NY, USA).
The inhibitory effect IE of compounds on RNA probe demethylation by FTO was calculated as the enhancement of the m^6A amount as compared to the negative control (DMSO) relative to the difference between m^6A amounts of the positive control (max inhibition) and the negative control (Equation (2)) (2) IE=Cinh− CDMSO/Cinh(max)− CDMSO where Cinh, Cinh(max), and CDMSO are the amounts of m^6A at a given concentration of the inhibitor, maximum inhibition and in the case of DMSO, respectively.
Enzymatic assay curve-fitting analysis and determination of the IC50 and EC50 values were performed using AAT Bioquest, Inc. Quest Graph™ IC50 Calculator (v.1, Sunnyvale, CA, USA). MST data analysis was performed using MO.Affinity Analysis v2.3 software (NanoTemper Technologies GmbH, Munich, Germany). Statistical significance in cell survival experiments was assessed using one-way ANOVA and unpaired t-test with the GraphPad Prism8 software (GraphPad Software, Inc., 2365 Northside Dr., Suite 560, San Diego, CA, USA). Results were considered statistically significant at p values lower than 0.05.

[2] = system: mouse midbrain dopamine neurons; experiment: Survival of growth factor-deprived primary midbrain dopamine neurons; type: cell-based; details: for Neuroprotective effect at 10 nM / Neuroprotective effect at 100 nM / Neuroprotective effect at 1000 nM: growth factor deprivation; for Protection of embryonic midbrain dopamine neurons from growth factor deprivation-induced cell death: E13 mouse midbrain cultures, TH-positive cells, 10–1000 nM, five days; for Number of TH-positive neurons: three tested concentrations, growth factor deprivation model
Procedure: We, therefore, assessed the neuroprotective ability of different concentrations of FTO or ALKBH5 inhibitors in cultured growth factor deprived dopamine neurons. Human recombinant GDNF (100 ng/mL) or a condition without any neurotrophic compound added were used as positive and negative controls, respectively. Growth factor deprivation caused cell death by 50–70%. Representative images of mouse E13 wild-type midbrain cultures treated with vehicle, FTO or ALKBH5 inhibitors, and GDNF (positive control) probed with anti-TH antibody are shown on Figure 7B.
The midbrain floors were dissected from the ventral mesencephalic of 13 days old NMRI strain mouse embryos following the published procedure. The tissues were incubated with 0.5% trypsin (103139, MP Biomedicals, Inc, Thermo Fisher Scientific, Waltham, MA, USA) in HBSS (Ca^2+/Mg^2+-free) (14170112, Invitrogen, Thermo Fisher Scientific, Carlsbad, CA, USA) for 20 min at 37 °C, then mechanically dissociated. Cells were plated onto the 96-well plates coated with poly-L-ornithine (Sigma-Aldrich, Merck KGaA, St. Louis, MO, USA). Equal volumes of cell suspension were plated onto the center of the dish. The dopamine neurons were cultured for five DIV in presence of cell culture media Dulbecco’s MEM/Nut mix F12 (Invitrogen/Gibco; 21331–020), 100 × N2 serum supplement (Invitrogen/ Gibco; 17502–048), 33 mM D-Glucose (Sigma; G-8769), 0.5 mM L-Glutamine (Invitrogen/ Gibco; 25030–032), and 100 μg/mL Primocin (Invivo Gen, San Diego, CA, USA)]. On 6 DIV, to deprive growth factors, the cultures were washed three times with normal medium and the FTO and ALKBH5 inhibitors and glial cell line-derived neurotrophic factor (GDNF) were applied. The cells were grown for five days with different concentrations of FTO and ALKBH5 inhibitors. Human recombinant GDNF (100 ng/mL) (Icosagen AS, Tartu, Estonia) or a condition without any neurotrophic compound added were used as positive and negative controls, respectively.
After growing five days, the neuronal cultures were fixed and stained with anti-Tyrosine Hydroxylase antibody (MAB318, Millipore Bioscience Research Reagents, Temecula, CA, USA). Images were acquired by CellInsight (Thermo Fisher Scientific) high-content imaging equipment. Immunopositive neurons were counted by CellProfiler software and the data was analyzed by CellProfiler analyst software. The results are expressed as % of cell survival compared to GDNF-maintained neurons.

[3] = system: dopamine neurons; experiment: 6-OHDA induced death of dopamine neurons; type: cell-based; details: data not shown
[4] = system: murine endothelial cells bEnd3 co-cultured with murine HIFko astrocytes; experiment: Artificial in vitro blood-brain barrier model; type: in vitro ADME; details: 10 µM in insert, 1 h; concentration in well ('brain') / concentration in insert
Description: The effects of FTO inhibitors were studied in the artificial in vitro BBB model, where murine endothelial cells bEnd3 were co-cultured with murine HIFko astrocytes on hanging cell culture inserts. The BBB penetration % defined as the ratio of the concentration of the compound in the well (‘brain’) side and the concentration in the insert, were 31.7 ± 3.3% for compound 2 and 30.8 ± 1.9% for compound 3.
Artificial in vitro blood–brain barrier (BBB) was established as described by Le Joncour et al. Murine endothelial cells bEnd3 (ATCC CRL-2299) were co-cultured with murine hypoxia-inducible factor knock out (HIFko) astrocytes (passage 12, received from Le Joncour) on hanging cell culture inserts (BD Falcon 353091, Franklin Lakes, NJ, USA) for five days in fetal bovine serum (FBS)-free conditions. 2.5 mL of FTO inhibitors (final concentration of 10 µM) were added into the insert (representing the ‘blood’ side) of the BBB cell. After 1 h incubation, 1 mL of the sample was taken from the insert and from the well (‘brain’ side), and the concentration of the compounds was measured by high-performance liquid chromatography (HPLC). […] The concentration of the studied compounds is each side of the BBB cell were analyzed using LC-MS system consisting of Agilent 1290 UHPLC (Agilent, Inc., Santa Clara, CA, USA) and Agilent 6460 Triple Quadrupole MS (Agilent, Inc., Santa Clara, CA 95051, USA). […]

[5] = target: T1, FTO protein; experiment: Protein binding by microscale thermophoresis (MST); parameters: purchased ProteoGenics SAS (ProteoGenix), Schiltigheim, France; host or cells: HEK293 (transient transfection); details: labelled FTO 20 nM, ligand 0–10 µM, 25 °C, pH 7.4
Procedure: The microscale thermophoresis (MST) experiments were performed using Monolith NT.115 instrument (NanoTemper Technologies GmbH, Germany). Recombinant human FTO protein was labeled through His-tag using Monolith His-Tag Labeling Kit RED-tris-NTA (NanoTemper Technologies GmbH; MO-L008). The labelled FTO protein (target) was used at 20 nM in all the experiments and 10 µM starting concentrations of ligands FTO inhibitors 2 or 3 were used in both series of experiments.
The measurements were done in a buffer containing 10 mM Na-phosphate buffer, pH 7.4, 1 mM MgCl2, 3 mM KCl, 150 mM NaCl, 0.05% Tween-20 in premium coated capillaries (NanoTemper Technologies GmbH; MO-K025) using red LED source, power set at 100% and medium MST power at 25 °C. Each data point represents mean fraction bound values from n = 3 independent experiments per binding pair ±S.D, Kd values ± error estimations are indicated. Data analysis was performed using MO.Affinity Analysis v2.3 software.

[6] = system: ALKBH5; parameters: method as in earlier work; details: read-out: IC50 against ALKBH5; cited from earlier work

Inhibitory effect on FTO [1] | Molecule | Neuroprotective effect at 10 nM [2] | Neuroprotective effect at 100 nM [2] | Neuroprotective effect at 1000 nM [2] | Protection of embryonic midbrain dopamine neurons from growth factor deprivation-induced cell death [2] | further results
No significant inhibitory effect | Nc1c(C(=O)O)cnc2ccccc12 [Compound 1, 4-aminoquinoline-3-carboxylic acid] |  |  |  |  | 
 | Nc1c(C(=O)O)cnc2c(Cl)cccc12 [Compound 2, 4-amino-8-chloroquinoline-3-carboxylic acid] | neuroprotective effect can be seen | statistically significant outcome | statistically significant outcome | dose-dependently protected; also recorded: comparable to that of GDNF | Rescue of dopamine neurons from 6-OHDA induced neuronal cell death [3]: recued dopamine neurons; BBB penetration % [4]: 31.7% and 31.7 ± 3.3%; Kd [5]: 185 nM; IC50 [1]: 1460 nM
 | Nc1cccc2cc(C(=O)O)cnc12 [Compound 3, 8-aminoquinoline-3-carboxylic acid] | neuroprotective effect can be seen | statistically significant outcome | statistically significant outcome | dose-dependently protected; also recorded: comparable to that of GDNF | Rescue of dopamine neurons from 6-OHDA induced neuronal cell death [3]: recued dopamine neurons; BBB penetration % [4]: 30.8% and 30.8 ± 1.9%; Kd [5]: 337 nM; IC50 [1]: 28900 nM
No significant inhibitory effect | Cc1cccc(C(=O)NNC(=O)/C=C/C(=O)O)c1 [Compound 4, (2E)-4-[(3-methylphenyl)formohydrazido]-4-oxobut-2-enoic acid] |  |  |  |  | 
No significant inhibitory effect | Cc1cccc(C(=O)NNC(=O)c2cccc(C)c2)c1 [Compound 6, 3-methyl-N’-(3-methylbenzoyl)benzohydrazide] |  |  |  |  | 
 | O=C(O)CSC(O)C(=O)c1ccccc1 (stereo not drawn) [Compound 7, 2-[(1-hydroxy-2-oxo-2-phenylethyl)sulfanyl]acetic acid] |  |  |  | only trend | Number of TH-positive neurons [2]: increased; IC50 [6]: 840 nM
 | O=C1CC(NCc2ccco2)C(=O)NN1 (stereo not drawn) [Compound 8, 4-{[(furan-2-yl)methyl]amino}-1,2-diazinane-3,6-dione] | rescued | only a trend | rescued |  | Number of TH-positive neurons [2]: increased

Molecule | Inhibitory effect on FTO [1] | Neuroprotective effect at 10 nM [2] | Neuroprotective effect at 100 nM [2] | Neuroprotective effect at 1000 nM [2] | Protection of embryonic midbrain dopamine neurons from growth factor deprivation-induced cell death [2] | further results
8-hydroxyquinoline-5-carboxylic acid [Compound 5] | No significant inhibitory effect |  |  |  |  | 
